Experimental data published in patent US20240150277A1, “Covalent PPARG inverse-agonists” (Bayer Aktiengesellschaft, priority 2022, published 2024).
Like-named read-outs stand apart in the source and are kept apart here.

How the values were obtained:
PPARG receptors = molecular target: T1, PPARG receptors (Homo sapiens, UniProt P37231); assay: RT-112-FABP4-NLuc Reporter Gene Assay (inverse agonism); format: cell-based; settings: incubated over night; for IC50: bladder cancer cell line RT-112/84, NanoLuc in FABP4 3′ UTR, 50 μM to 0.03 nM; for Emax: RT112/84, read-out: PPARG_RT-112_FABP4_NLuc_inverse agonist Efficacy - [%], bladder cancer cell line RT-112/84, NanoLuc in FABP4 3′ UTR
T1 construct: leading to PPARG dependent expression of the NanoLuc@ Luciferase; endogenous in cells
T1 sequence (P37231 1-505): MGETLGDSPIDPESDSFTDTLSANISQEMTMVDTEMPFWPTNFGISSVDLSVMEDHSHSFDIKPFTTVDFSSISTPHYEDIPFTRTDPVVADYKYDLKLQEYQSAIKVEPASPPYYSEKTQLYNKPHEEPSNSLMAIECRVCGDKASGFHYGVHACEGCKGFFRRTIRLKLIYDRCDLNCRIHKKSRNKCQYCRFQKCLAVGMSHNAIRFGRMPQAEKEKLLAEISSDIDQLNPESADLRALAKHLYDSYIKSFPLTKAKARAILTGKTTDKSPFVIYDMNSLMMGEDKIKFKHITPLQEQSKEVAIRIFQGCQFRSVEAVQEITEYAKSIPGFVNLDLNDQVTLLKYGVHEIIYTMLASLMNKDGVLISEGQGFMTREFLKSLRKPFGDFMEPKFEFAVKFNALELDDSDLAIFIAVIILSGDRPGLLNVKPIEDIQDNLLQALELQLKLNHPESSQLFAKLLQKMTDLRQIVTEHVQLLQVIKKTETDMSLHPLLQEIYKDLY
Experimental: Inverse agonists reduce the basal expression of the Luciferase resulting in a decrease of the Luciferase signal after addition of substrate and cell lysis. To exclude toxic effects of the compounds a parallel measurement of cell viability was performed based on the CellTiter Glo Assay (Promega).
On the next day 10 μl of test compounds dissolved in DMEM/F12 2% FBS and 0,01% BSA are placed in the wells of the microtiter plates. Final concentrations ranged from 50 μM to 0.03 nM. […] On the next day the NanoLuc Luciferase activity was measured by addition of 40 μl of NanoLuc substrate and lysis buffer (Promega, Madison, Wisconsin) diluted in 2 mM Ca-tyrode buffer (20 mM HEPES, 130 mM NaCl, 5 mM KCl, 5 mM NaHCO3, 2 mM MgCl2, pH 7,4). The resulting light signal was measured for 60 seconds in a luminometer. Every sample was tested in quadruples and mean values were used to calculate the IC50 values and efficacies of the compounds.

UMUC9 cells = assay: Proliferation UMUC9 H2B-GFP assay (Incucyte); format: cell-based; settings: 7 days of treatment; for Emax: UM-UC-9, 168 h, % efficacy (span); for IC50: UM-UC-9, relative IC50, Day 1 subtracted, percentage of DMSO control
Experimental: Proliferation UMUC9 H2B-GFP assay
Instrument: Incucyte® (Sartorius).
Description: Incucyte® Proliferation Assay measures cell proliferation based on nuclei count using live-cell time-lapse imaging. […] Measurements were performed on the day of treatment (Day 1 reading) and after 7 days of treatment (Day 8 reading). Green fluorescence in cell nuclei is measured using the instrument (Image Channels: Phase, Green; Acquisition time: 300 ms; Magnification: 4×).
Analysis: Selected metrics for analysis: Phase Object Confluence (Percent), Nuclei Count (1/Well) and Total Nuclei Area (μm^2/Well). Day 1 measurements were subtracted from each Day 8 measurement and expressed as percentage of the vehicle (DMSO) control. Percentage proliferation values were then plotted against compound concentration using GraphPad PRISM software. The Sigmoidal 4PL X is log (concentration) model of […] was used. Relative IC50 values and % efficacy (span) is reported below.

[1] = PPARG_RT-112_FABP4_NLuc_inverse agonist IC50 - [mol/l]
[2] = read-out: PPARG_RT-112_FABP4_NLuc_inverse agonist IC50 - [mol/l]

In the case of `Cc1cc(N2CCCC(O)C2)ccc1NC(=O)c1cc(C(=O)NCc2ccc(F)c(F)c2)c(F)cc1Cl` (stereo not drawn) [Example 11, 4-chloro-N^1-[(3,4-difluorophenyl)methyl]-6-fluoro-N^3-{4-[3-hydroxypiperidin-1-yl]-2-methylphenyl}benzene-1,3-dicarboxamide], the IC50 (PPARG receptors; [1]) is reported as 4.2 nM, the Emax (PPARG receptors) is reported as 103% and the Emax (UMUC9 cells) is reported as 104%. The IC50 (UMUC9 cells) was 8.23 nM.

Work on `O=C(NCc1ccc(F)c(F)c1)c1cc(Cl)c(Cl)c(C(=O)Nc2ccc(C(F)(F)F)cn2)c1` [Example 13, 4,5-dichloro-N′-[(3,4-difluorophenyl)methyl]-N^3-[5-(trifluoromethyl)pyridin-2-yl]benzene-1,3-dicarboxamide] yielded an IC50 (PPARG receptors; [1]) of 0.4 nM, an Emax (PPARG receptors) of 77.5% and an Emax (UMUC9 cells) of 77%. The IC50 (UMUC9 cells) was 4800 nM.

For `O=C(NCc1ccc(F)c(F)c1)c1cc(Cl)c(Cl)c(C(=O)Nc2ccc(C3CC3)cn2)c1` [Example 14, 4,5-dichloro-N^3-(5-cyclopropylpyridin-2-yl)-N^1-[(3,4-difluorophenyl)methyl]benzene-1,3-dicarboxamide], the IC50 (PPARG receptors; [1]) was 0.42 nM, the Emax (PPARG receptors) was 82.5% and the Emax (UMUC9 cells) was 85%. It also gave an IC50 (UMUC9 cells) of 1570 nM.

`COc1ccccc1CNC(=O)c1cc(Cl)c(Cl)c(C(=O)Nc2ccccc2)c1` [Example 15, 4,5-dichloro-N-[(2-methoxyphenyl)methyl]-N^3-phenylbenzene-_,3-dicarboxamide] was tested, and the IC50 (PPARG receptors; [1]) was 0.52 nM, the Emax (PPARG receptors) was 70.7% and the Emax (UMUC9 cells) was 60.6%. The IC50 (UMUC9 cells) was 7.96 nM.

Work on `Cc1ccccc1CNC(=O)c1cc(Cl)c(Cl)c(C(=O)Nc2ccccc2)c1` [Example 17, 4,5-dichloro-N^1-[(2-methylphenyl)methyl]-N^3-phenylbenzene-1,3-dicarboxamide] yielded an IC50 (PPARG receptors; [1]) of 1.3 nM, an Emax (PPARG receptors) of 71% and an Emax (UMUC9 cells) of 28.3%. It also gave an IC50 (UMUC9 cells) of 1.52 nM.

`Cc1cc(N2CCOCC2)cnc1NC(=O)c1cc(C(=O)NCc2ccc(F)c(F)c2)c(F)c(C)c1Cl` [Example 18, 4-chloro-N^1-[(3,4-difluorophenyl)methyl]-6-fluoro-5-methyl-N^3-[3-methyl-5-(morpholin-4-yl)pyridin-2-yl]benzene-1,3-dicarboxamide] gave an IC50 (PPARG receptors; [1]) of 1.35 nM, an Emax (PPARG receptors) of 95% and an Emax (UMUC9 cells) of 59.5%. The IC50 (UMUC9 cells) was 31 nM.

With `COCCOc1ccc(NC(=O)c2cc(C(=O)NCc3ccc(F)c(F)c3)c(F)c(C)c2Cl)c(C)c1` [Example 19, 4-chloro-N^1-[(3,4-difluorophenyl)methyl]-6-fluoro-N^3-[4-(2-methoxyethoxy)-2-methylphenyl]-5-methylbenzene-1,3-dicarboxamide] the IC50 (PPARG receptors; [1]) was 1.22 nM, the Emax (PPARG receptors) was 144% and the Emax (UMUC9 cells) was 65.9%. For the same compound, the IC50 (UMUC9 cells) was 11.6 nM.

In the case of `Cc1cccc(-c2nc3cc(NC(=O)c4cc(C(=O)NCc5ccc(F)c(F)c5)c(F)c(C)c4Cl)ccc3o2)c1` [Example 20, 4-chloro-N^1-[(3,4-difluorophenyl)methyl]-6-fluoro-5-methyl-N^3-[2-(3-methylphenyl)-1,3-benzoxazol-5-yl]benzene-1,3-dicarboxamide], the IC50 (PPARG receptors; [1]) is reported as 0.455 nM, the Emax (PPARG receptors) is reported as 114% and the Emax (UMUC9 cells) is reported as 69.6%. It also gave an IC50 (UMUC9 cells) of 5.91 nM.

With `O=C(NCc1ccc(F)cc1)c1cc(C(=O)Nc2ccc(Oc3ccccc3)cn2)c(Cl)cc1F` [Example 21, 4-chloro-6-fluoro-N^1-[(4-fluorophenyl)methyl]-N^3-(5-phenoxypyridin-2-yl)benzene-1,3-dicarboxamide] the IC50 (PPARG receptors; [1]) was 1.48 nM, the Emax (PPARG receptors) was 142% and the Emax (UMUC9 cells) was 56.1%. For the same compound, the IC50 (UMUC9 cells) was 10.6 nM.

`O=C(NCc1ccc(F)cc1)c1cc(C(=O)Nc2ccc3oc(-c4cccc(Cl)c4)nc3c2)c(Cl)cc1F` [Example 22, 4-chloro-N^3-[2-(3-chlorophenyl)-1,3-benzoxazol-5-yl]-6-fluoro-N^1-[(4-fluorophenyl)methyl]benzene-1,3-dicarboxamide] showed an IC50 (PPARG receptors; [1]) of 1.3 nM, an Emax (PPARG receptors) of 106% and an Emax (UMUC9 cells) of 86.6%. The IC50 (UMUC9 cells) was 21.6 nM.

Work on `Cc1noc(-c2ccc(NC(=O)c3cc(C(=O)NCc4ccc(F)cc4)c(F)cc3Cl)cc2)n1` [Example 23, 4-chloro-6-fluoro-N^1-[(4-fluorophenyl)methyl]-N^3-[4-(3-methyl-1,2,4-oxadiazol-5-yl)phenyl]benzene-1,3-dicarboxamide] yielded an IC50 (PPARG receptors; [1]) of 0.815 nM, an Emax (PPARG receptors) of 148% and an Emax (UMUC9 cells) of 54%. It also gave an IC50 (UMUC9 cells) of 3.77 nM.

With `Cc1ccc(NC(=O)c2cc(C(=O)NCc3ccccc3)c(F)cc2Cl)cc1` [Example 24, N^1-benzyl-4-chloro-6-fluoro-N^3-(4-methylphenyl)benzene-1,3-dicarboxamide] the IC50 (PPARG receptors; [1]) was 7.65 nM, the Emax (PPARG receptors) was 92.5% and the Emax (UMUC9 cells) was 24.4%. For the same compound, the IC50 (UMUC9 cells) was 25.1 nM.

`Cc1ccccc1NC(=O)c1cc(C(=O)NCc2ccccc2)c(F)cc1Cl` [Example 25, N1-benzyl-4-chloro-6-fluoro-N^3-(2-methylphenyl)benzene-1,3-dicarboxamide] was tested, and the IC50 (PPARG receptors; [1]) was 40 nM, the Emax (PPARG receptors) was 99.3% and the IC50 (UMUC9 cells) was over 6000 nM.

With `COCCOCc1cc(F)ccc1CNC(=O)c1cc(C(=O)Nc2ccc(C(F)(F)F)cc2C)c(Cl)cc1F` [Example 26, 4-chloro-6-fluoro-N^1-({4-fluoro-2-[(2-methoxyethoxy)methyl]phenyl}methyl)-N^3-[2-methyl-4-(trifluoromethyl)phenyl]benzene-1,3-dicarboxamide] the Emax (PPARG receptors) was 94%, the IC50 (PPARG receptors; [2]) was 7.35 nM and the Emax (UMUC9 cells) was 73.4%. For the same compound, the IC50 (UMUC9 cells) was 27.5 nM.

`O=C(NCc1ccccc1)c1cc(Cl)c(Cl)c(C(=O)Nc2ccc(OC(F)F)cc2)c1F` [Example 31, N^1-benzyl-4,5-dichloro-N^3-[4-(difluoromethoxy)phenyl]-2-fluorobenzene-1,3-dicarboxamide] showed an IC50 (PPARG receptors; [1]) of 0.3 nM, an Emax (PPARG receptors) of 86.8% and an IC50 (UMUC9 cells) of over 6000 nM.

With `O=C(NCc1ccccc1)c1cc(Cl)c(Cl)c(C(=O)Nc2ccc(C3COC3)cc2)c1F` [Example 33, N^1-benzyl-4,5-dichloro-2-fluoro-N3-[4-(oxetan-3-yl)phenyl]benzene-1,3-dicarboxamide] the IC50 (PPARG receptors; [1]) was 1.05 nM, the Emax (PPARG receptors) was 94% and the Emax (UMUC9 cells) was 59.8%. It also gave an IC50 (UMUC9 cells) of 4.91 nM.

`O=C(NCc1ccc(F)c(F)c1)c1cc(C(=O)Nc2ccccn2)c(Cl)cc1F` [Example 34, 4-chloro-N^1-(3,4-difluorobenzyl)-6-fluoro-N^3-(pyridin-2-yl)isophthalamide] was tested, and the Emax (PPARG receptors) was 95%, the IC50 (PPARG receptors; [2]) was 54.5 nM and the Emax (UMUC9 cells) was 100%.

For `O=C(NCc1ccc(F)c(F)c1)c1cc(C(=O)Nc2ccc(N3CCOCC3)cc2)c(Cl)cc1F` [Example 35, 4-chloro-N^1-(3,4-difluorobenzyl)-6-fluoro-N^3-(4-morpholinophenyl)isophthalamide], the IC50 (PPARG receptors; [1]) was 21.5 nM, the Emax (PPARG receptors) was 102% and the Emax (UMUC9 cells) was 92.3%. It also gave an IC50 (UMUC9 cells) of 182 nM.

Compound `O=C(NCc1ccc(F)c(F)c1)c1cc(C(=O)Nc2cnc(Oc3ccccc3)cn2)c(Cl)cc1F` [Example 36, 4-chloro-N^1-(3,4-difluorobenzyl)-6-fluoro-N^3-(5-phenoxypyrazin-2-yl)isophthalamide] has an IC50 (PPARG receptors; [1]) of 1.26 nM, an Emax (PPARG receptors) of 97.5% and an Emax (UMUC9 cells) of 66%. For the same compound, the IC50 (UMUC9 cells) was 5.98 nM.

Work on `COc1ccccc1CNC(=O)c1cc(Cl)c(Cl)c(C(=O)Nc2ccc(N3CCOCC3)cn2)c1` [Example 38, 4,5-dichloro-N^1-(2-methoxybenzyl)-N^3-(5-morpholinopyridin-2-yl)isophthalamide] yielded an IC50 (PPARG receptors; [1]) of 0.73 nM, an Emax (PPARG receptors) of 98.5% and an Emax (UMUC9 cells) of 49.5%. It also gave an IC50 (UMUC9 cells) of 4.23 nM.

For `Cc1cccc(-c2nc3cc(NC(=O)c4cc(C(=O)NCc5ccc(F)c(F)c5)c(F)cc4Cl)ccc3o2)c1` [Example 39, 4-chloro-N^1-(3,4-difluorobenzyl)-6-fluoro-N^3-(2-(m-tolyl)benzo[d]oxazol-5-yl)isophthalamide], the Emax (PPARG receptors) was 95.5%, the IC50 (PPARG receptors; [2]) was 6.55 nM and the Emax (UMUC9 cells) was 88.7%. The IC50 (UMUC9 cells) was 34.2 nM.
